Experiment in all cases: fluorescence reverse titration
Assay [1] deals with actin binding domain (Homo sapiens, UniProt P11277).
Assay [2] concerns the target T1, SH3 domain (Homo sapiens, UniProt P02549).
T1 sequence (P02549 973-1055): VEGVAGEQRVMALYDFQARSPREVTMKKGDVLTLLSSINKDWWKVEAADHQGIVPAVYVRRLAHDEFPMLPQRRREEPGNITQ
The assay is classed as binding.

Assay [3] addresses T2, β-tetramerization domain (Homo sapiens, UniProt P11277).
T2 sequence (P11277 1895-2137): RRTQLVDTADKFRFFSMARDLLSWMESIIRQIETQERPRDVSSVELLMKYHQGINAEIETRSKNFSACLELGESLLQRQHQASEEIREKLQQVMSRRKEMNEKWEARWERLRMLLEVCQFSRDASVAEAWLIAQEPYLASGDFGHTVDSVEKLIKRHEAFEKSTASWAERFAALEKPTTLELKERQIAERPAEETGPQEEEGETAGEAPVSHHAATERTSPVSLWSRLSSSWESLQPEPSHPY
The assay is classed as binding.

Assay [4] addresses T3, α-tetramerization domain (Homo sapiens, UniProt P02549).
T3 sequence (P02549 1-158): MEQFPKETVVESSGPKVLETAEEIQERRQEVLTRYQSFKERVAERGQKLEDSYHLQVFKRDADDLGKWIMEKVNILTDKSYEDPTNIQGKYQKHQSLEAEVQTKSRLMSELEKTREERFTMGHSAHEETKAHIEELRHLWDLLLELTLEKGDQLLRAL
It is filed as binding.

In assay [5] the target is Spectrin (dimeric human erythroid spectrin) (Homo sapiens, UniProt P02549+P11277). The assay is classed as binding.
Chain of Spectrin (dimeric human erythroid spectrin) (P02549 whole entry, the tested form may be a part): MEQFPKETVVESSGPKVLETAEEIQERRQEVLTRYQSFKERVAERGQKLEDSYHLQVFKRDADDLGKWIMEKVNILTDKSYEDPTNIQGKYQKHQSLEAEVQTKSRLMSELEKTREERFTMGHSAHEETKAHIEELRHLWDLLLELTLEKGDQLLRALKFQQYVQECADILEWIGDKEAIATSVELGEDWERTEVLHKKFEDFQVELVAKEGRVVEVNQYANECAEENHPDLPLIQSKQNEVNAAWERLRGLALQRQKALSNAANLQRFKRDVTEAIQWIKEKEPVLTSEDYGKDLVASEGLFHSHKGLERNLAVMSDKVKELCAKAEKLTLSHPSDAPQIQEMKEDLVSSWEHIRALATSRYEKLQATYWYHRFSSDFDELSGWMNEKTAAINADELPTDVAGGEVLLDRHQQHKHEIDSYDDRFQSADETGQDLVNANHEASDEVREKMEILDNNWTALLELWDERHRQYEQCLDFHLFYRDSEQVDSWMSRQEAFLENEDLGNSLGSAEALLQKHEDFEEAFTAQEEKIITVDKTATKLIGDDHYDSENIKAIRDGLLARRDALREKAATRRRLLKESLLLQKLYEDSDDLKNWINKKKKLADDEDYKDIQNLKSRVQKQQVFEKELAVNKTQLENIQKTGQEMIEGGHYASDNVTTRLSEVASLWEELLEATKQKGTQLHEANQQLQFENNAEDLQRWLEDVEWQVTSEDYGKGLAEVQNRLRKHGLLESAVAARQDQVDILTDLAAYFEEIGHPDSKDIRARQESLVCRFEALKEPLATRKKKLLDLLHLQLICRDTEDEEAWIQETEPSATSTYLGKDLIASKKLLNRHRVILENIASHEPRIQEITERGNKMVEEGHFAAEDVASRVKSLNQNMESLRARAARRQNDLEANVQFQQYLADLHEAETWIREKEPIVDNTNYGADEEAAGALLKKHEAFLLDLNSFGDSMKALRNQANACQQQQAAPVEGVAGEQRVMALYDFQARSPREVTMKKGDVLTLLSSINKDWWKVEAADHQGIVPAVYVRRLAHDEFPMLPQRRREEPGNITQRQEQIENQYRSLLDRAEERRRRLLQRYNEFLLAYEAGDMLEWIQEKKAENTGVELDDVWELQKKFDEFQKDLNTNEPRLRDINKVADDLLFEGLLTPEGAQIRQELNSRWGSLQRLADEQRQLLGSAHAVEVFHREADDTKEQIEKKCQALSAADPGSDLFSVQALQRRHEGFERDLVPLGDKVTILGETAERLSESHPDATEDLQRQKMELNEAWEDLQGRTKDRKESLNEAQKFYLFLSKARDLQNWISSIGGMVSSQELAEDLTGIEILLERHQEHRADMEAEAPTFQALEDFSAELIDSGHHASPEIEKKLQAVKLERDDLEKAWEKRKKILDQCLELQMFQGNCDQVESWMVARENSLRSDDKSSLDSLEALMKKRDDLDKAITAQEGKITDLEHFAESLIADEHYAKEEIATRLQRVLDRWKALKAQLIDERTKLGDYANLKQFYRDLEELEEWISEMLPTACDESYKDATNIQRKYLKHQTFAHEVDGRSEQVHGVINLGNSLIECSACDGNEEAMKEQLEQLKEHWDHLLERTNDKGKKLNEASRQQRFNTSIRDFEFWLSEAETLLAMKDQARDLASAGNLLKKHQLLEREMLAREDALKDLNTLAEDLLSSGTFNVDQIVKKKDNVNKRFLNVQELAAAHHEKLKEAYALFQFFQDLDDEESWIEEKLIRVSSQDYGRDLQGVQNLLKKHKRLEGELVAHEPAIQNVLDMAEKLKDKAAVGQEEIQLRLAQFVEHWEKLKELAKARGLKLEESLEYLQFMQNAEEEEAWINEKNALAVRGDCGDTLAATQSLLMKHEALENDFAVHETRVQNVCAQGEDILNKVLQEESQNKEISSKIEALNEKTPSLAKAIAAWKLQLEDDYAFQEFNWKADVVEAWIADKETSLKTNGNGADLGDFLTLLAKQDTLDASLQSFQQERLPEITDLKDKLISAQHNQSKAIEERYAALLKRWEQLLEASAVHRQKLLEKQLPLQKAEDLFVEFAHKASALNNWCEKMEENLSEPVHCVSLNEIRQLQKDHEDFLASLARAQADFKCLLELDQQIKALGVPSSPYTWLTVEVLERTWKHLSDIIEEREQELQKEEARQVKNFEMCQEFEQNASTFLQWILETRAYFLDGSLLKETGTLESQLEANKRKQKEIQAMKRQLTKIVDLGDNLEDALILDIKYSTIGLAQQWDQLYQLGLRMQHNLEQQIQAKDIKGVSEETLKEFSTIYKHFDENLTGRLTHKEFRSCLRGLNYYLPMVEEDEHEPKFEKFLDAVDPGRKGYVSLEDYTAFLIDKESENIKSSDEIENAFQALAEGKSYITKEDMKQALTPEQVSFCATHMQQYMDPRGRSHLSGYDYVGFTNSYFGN
Chain of Spectrin (dimeric human erythroid spectrin) (P11277 2-2137): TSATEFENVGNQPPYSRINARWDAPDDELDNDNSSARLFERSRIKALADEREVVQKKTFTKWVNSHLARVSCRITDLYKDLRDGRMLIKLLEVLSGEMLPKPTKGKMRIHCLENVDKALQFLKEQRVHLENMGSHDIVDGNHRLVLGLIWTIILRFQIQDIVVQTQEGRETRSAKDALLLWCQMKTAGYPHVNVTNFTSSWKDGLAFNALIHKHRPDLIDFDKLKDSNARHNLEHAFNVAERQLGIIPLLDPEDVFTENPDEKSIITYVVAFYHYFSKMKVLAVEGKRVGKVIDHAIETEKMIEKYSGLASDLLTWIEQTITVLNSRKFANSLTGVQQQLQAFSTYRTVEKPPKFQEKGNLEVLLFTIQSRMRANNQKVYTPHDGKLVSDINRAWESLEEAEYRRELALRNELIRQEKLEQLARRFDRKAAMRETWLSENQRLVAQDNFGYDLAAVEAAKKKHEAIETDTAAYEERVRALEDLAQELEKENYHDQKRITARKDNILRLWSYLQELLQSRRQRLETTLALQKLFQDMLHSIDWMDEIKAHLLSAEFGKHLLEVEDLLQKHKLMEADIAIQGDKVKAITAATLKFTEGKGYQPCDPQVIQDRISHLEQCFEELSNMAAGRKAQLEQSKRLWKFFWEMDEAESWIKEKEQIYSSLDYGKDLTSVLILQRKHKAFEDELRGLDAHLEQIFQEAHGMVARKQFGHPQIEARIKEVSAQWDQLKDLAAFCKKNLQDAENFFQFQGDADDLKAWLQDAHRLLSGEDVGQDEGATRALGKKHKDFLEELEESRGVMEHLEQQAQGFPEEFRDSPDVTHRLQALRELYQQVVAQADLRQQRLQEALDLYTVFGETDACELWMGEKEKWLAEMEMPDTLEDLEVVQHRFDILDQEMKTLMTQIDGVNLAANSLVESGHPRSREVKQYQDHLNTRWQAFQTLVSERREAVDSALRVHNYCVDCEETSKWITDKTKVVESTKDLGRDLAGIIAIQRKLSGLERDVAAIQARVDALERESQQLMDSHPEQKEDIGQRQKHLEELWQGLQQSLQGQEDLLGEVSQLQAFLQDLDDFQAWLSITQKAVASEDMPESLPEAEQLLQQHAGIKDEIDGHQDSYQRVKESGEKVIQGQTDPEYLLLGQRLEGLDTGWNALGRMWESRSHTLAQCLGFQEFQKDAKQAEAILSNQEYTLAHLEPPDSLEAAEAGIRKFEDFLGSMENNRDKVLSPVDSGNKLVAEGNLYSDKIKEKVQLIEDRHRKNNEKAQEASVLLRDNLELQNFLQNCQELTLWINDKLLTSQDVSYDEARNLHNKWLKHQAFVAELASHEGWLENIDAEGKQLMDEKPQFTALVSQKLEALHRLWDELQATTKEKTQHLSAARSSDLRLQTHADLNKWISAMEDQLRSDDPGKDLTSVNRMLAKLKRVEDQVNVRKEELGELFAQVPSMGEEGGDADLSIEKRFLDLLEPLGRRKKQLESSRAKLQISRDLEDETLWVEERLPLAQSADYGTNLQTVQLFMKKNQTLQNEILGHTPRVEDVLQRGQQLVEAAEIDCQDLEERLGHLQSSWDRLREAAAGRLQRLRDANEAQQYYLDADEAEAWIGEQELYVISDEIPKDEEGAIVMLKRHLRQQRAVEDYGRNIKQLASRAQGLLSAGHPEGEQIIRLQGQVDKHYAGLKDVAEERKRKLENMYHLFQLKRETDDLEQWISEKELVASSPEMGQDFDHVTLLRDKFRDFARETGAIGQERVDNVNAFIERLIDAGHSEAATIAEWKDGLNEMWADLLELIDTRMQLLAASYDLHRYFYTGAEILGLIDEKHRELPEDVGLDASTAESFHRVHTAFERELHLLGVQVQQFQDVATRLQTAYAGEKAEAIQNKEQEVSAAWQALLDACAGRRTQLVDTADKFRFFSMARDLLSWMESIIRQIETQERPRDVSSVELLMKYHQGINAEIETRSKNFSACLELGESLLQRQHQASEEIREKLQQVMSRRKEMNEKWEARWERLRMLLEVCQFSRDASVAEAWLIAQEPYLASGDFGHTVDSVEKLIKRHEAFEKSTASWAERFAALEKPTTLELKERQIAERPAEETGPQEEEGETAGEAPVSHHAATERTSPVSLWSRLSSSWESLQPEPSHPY
The target of assay [6] is T4, α-dimerization domain (Homo sapiens, UniProt P02549).
T4 sequence (P02549 2002-2233): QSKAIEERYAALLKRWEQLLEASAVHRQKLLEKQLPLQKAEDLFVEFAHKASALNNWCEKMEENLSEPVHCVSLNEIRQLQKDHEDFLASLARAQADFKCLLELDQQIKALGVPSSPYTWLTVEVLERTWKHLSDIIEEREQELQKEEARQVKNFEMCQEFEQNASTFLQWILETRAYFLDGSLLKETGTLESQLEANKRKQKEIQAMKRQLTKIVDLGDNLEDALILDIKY
The assay is classed as binding.

Assay [7] has as its target β-dimerization domain (Homo sapiens, UniProt P11277). It is filed as binding.
Assay [8] addresses T5, ankyrin binding domain (Homo sapiens, UniProt P11277).
T5 sequence (P11277 1657-1876): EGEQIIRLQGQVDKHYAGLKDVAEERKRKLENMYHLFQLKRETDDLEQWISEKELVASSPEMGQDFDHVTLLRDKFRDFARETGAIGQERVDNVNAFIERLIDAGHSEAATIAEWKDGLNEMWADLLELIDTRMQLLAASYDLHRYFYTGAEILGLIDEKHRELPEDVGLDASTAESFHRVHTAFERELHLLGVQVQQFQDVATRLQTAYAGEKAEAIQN

The target of assay [9] is T6, Self-association domain (reconstituted) (Homo sapiens, UniProt P02549+P11277).
T6 sequence (P02549 1-158): T3 sequence (P02549 1-158)
T6 sequence (P11277 1895-2137): T2 sequence (P11277 1895-2137)
It is filed as binding.

Assay [10] concerns the target T7, spectrin repeat domain (Homo sapiens, UniProt P02549).
T7 sequence (P02549 1470-1576): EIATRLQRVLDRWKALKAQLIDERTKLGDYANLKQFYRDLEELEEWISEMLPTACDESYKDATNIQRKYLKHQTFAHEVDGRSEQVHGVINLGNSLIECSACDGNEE
It is filed as binding.

These results are taken from doi:10.1101/534982v1 (biorxiv, 2019).

What is called Kd is the concentration at which binding is half-saturated. A higher Kd goes with a looser complex.

Each structure is given as a SMILES string.

Chain of β-dimerization domain (P11277 271-500): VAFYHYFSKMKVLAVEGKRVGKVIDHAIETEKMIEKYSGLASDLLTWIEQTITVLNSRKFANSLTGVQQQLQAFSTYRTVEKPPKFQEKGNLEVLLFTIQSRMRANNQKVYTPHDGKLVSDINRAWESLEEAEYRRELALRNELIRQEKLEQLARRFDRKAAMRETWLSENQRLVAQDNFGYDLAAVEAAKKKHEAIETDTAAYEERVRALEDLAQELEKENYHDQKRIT
Chain of actin binding domain (P11277 1-316): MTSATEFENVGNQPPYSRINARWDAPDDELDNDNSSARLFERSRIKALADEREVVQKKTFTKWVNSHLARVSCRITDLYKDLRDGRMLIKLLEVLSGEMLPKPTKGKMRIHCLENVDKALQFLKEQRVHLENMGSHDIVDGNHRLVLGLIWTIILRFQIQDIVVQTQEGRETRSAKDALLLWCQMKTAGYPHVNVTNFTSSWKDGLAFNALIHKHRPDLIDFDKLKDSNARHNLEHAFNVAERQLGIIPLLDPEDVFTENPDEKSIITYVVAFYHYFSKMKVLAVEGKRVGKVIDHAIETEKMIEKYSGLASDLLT

Consider `O=S(=O)(O)c1cccc2cccc(Nc3ccccc3)c12` [ANS, 1-anilinonaphthalene-8-sulfonic acid], for which the Kd came out at 64.3 ± 3.9 µM in assay [1]; 64 ± 2.7 µM in [2]; 48.2 ± 3.3 µM in assay [3]; 45.4 ± 3.1 µM in assay [4]; 30.1 ± 2 µM in assay [5]; 51.5 ± 3.2 µM in assay [6]. Also, the Kd was 37.2 ± 3.1 µM in assay [7], 40 ± 2.8 µM in assay [8], 38.9 ± 2.3 µM in assay [9] and 47.7 ± 2.9 µM in assay [10].
